From patent publication US20260069584A1, “METHODS OF TREATING CHRONIC MYELOID LEUKEMIA USING THE TYROSINE KINASE INHIBITOR VODOBATINIB” (Sun Pharma Advanced Research Company Ltd., priority 2022, published 2026)

Test system: CP CML
Assay: Part B: disease response in CP CML subjects
Assay type: in vivo, human
Excerpt: This was a Phase I/2, open-label, single-agent, multicenter, multi-dose, dose-escalation study in subjects with Philadelphia chromosome-positive Ph+ CML (CP CML, AP CML and BP CML) and Ph+ ALL. The primary objectives of this study were to determine the maximum tolerated dose (MTD; or recommended Phase 2 dose [RP2D]) of the compound of Formula I when administered orally and to evaluate its safety.
In this study, the dose-escalation cohort started with an accelerated titration study design (ATD) and shifted to a 3±3 design when subjects in the preceding ATD cohort experienced either grade 2 or higher adverse events (AEs) or dose-limiting toxicity (DLT) during Cycle 1 that was not clearly and incontrovertibly related to the underlying disease or concomitant medications. The DLT period consisted of 28 days (Cycle 1). Subjects experiencing DLTs were managed with dose delays and/or discontinuation and continued in the study until disease progression. Decisions to advance to a succeeding dose level occurred after the evaluation of safety and tolerability data for a given dose level.
Accordingly, the eligible subjects were treated in 4-week cycles of once daily self-administration of the compound of Formula I. The administration was after an overnight fast, or after maintaining approximately 2 hours of fasting before and after the dosing in all cycles.
For the cohorts, where the 3±3 design applies, 3 subjects were enrolled initially. If 2 of these subjects experienced a Grade 2 or more toxicity (that was not clearly and incontrovertibly related to the underlying disease or concomitant medications), subsequent cohorts were escalated according to smaller increments. Further, if there were no DLTs in the first 3 subjects, dose escalation to the next higher dose level was allowed to proceed. If 1 of the 3 subjects experienced a DLT, that dose level was expanded to 6 subjects (3 additional subjects were enrolled). If 2 subjects at a given dose level experienced a DLT, the MTD was considered to have been exceeded. The next lower dose level was expanded to 6 subjects, or if 6 subjects had already been enrolled and no more than 1 of the 6 subjects experienced a DLT, then this lower dose level was considered the MTD. Additional subjects were enrolled in dose escalation cohorts for further assessment of safety and efficacy of the compound of Formula 1 at doses that were tolerated (i.e., doses that have <2 DLTs in 6 enrolled subjects or <1 DLT in 3 enrolled subjects). Thus 204 mg was arrived at as MTD. A subject experiencing a DLT was allowed to continue therapy with a reduced dose. Subjects who experienced a DLT and recovered were treated at the next lower dose level until disease progression or other events requiring further dose reduction existed. For cohorts at Dose Level 2 or higher, a further dose reduction (i.e., up to 2 levels lower than their originally assigned dose) was implemented in the case of a further DLT or other non-DLT events requiring a dose reduction, if and when the event leading to dose reduction returned to Grade 1 or lower in severity. The reduced dose was re-escalated to the original or higher dose (i.e., the dose for which safety had been established in the dose escalation cohort) considering subject safety and response to the compound of Formula I. The subject was discontinued from treatment using the compound of Formula I, if dose reduction below 48 mg was required.
The study was conducted over a period of 60 months (5 years) which was divided in 28-days cycle. In the first two cycles, the dose administration was started on day 1 and the subject's assessments were performed on day 1, day 2, day 3, day 8, day 15 and day 22. From Cycle 3 onwards, the assessments were performed every 3 months (i.e., on day 28 of Cycle 3, followed by day 28 of Cycle 6 which was further followed by day 28 of Cycle 9). […]

## Cc1ccc(C(=O)NNC(=O)c2c(C)cccc2Cl)cc1C#Cc1cnc2ccccc2c1 [compound of Formula I, N′-(2-chloro-6-methylbenzoyl)-4-methyl-3-[2-(3-quinolyl)ethynyl]-benzohydrazide]
12 mg (N = 1) ESC
  Best Cytogenetic Response: Complete Response: 1(100)
  Best Cytogenetic Response: Major Cytogenetic Response: 1(100)
  Best Cytogenetic Response: Minimal Response: 0
  Best Cytogenetic Response: Minor Response: 0
  Best Cytogenetic Response: No Response: 0
  Best Cytogenetic Response: Partial Response: 0
  Best Hematologic Response: Complete Response: 1(100)
  Best Hematologic Response: Major Hematologic Response: 1(100)
  Best Hematologic Response: No Evidence of Leukemia: 0
  Best Hematologic Response: No Response: 0
  Best Molecular Response: Complete Response: 0
  Best Molecular Response: Major Response: 0
48 mg (N = 3) ESC
  Best Cytogenetic Response: Complete Response: 2(66.7)
  Best Cytogenetic Response: Major Cytogenetic Response: 2(66.7)
  Best Cytogenetic Response: Minimal Response: 0
  Best Cytogenetic Response: Minor Response: 0
  Best Cytogenetic Response: No Response: 0
  Best Cytogenetic Response: Partial Response: 0
  Best Hematologic Response: Complete Response: 2(66.7)
  Best Hematologic Response: Major Hematologic Response: 2(66.7)
  Best Hematologic Response: No Evidence of Leukemia: 0
  Best Hematologic Response: No Response: 1(33.3)
  Best Molecular Response: Complete Response: 2(66.7)
  Best Molecular Response: Major Response: 2(66.7)
  Best Molecular Response: No Response: 0
66 mg (N = 4) ESC
  Best Cytogenetic Response: Complete Response: 2(50.0)
  Best Cytogenetic Response: Major Cytogenetic Response: 2(50.0)
  Best Cytogenetic Response: Minimal Response: 1(25.0)
  Best Cytogenetic Response: Minor Response: 0
  Best Cytogenetic Response: No Response: 1(25.0)
  Best Cytogenetic Response: Partial Response: 0
  Best Hematologic Response: Complete Response: 3(75.0)
  Best Hematologic Response: Major Hematologic Response: 3(75.0)
  Best Hematologic Response: No Evidence of Leukemia: 0
  Best Hematologic Response: No Response: 1(25.0)
  Best Molecular Response: Complete Response: 1(25.0)
  Best Molecular Response: Major Response: 1(25.0)
  Best Molecular Response: No Response: 3(75.0)
90 mg (N = 2) ESC
  Best Cytogenetic Response: Complete Response: 0
  Best Cytogenetic Response: Major Cytogenetic Response: 1(50.0)
  Best Cytogenetic Response: Minimal Response: 0
  Best Cytogenetic Response: Minor Response: 0
  Best Cytogenetic Response: No Response: 1(50.0)
  Best Cytogenetic Response: Partial Response: 1(50.0)
  Best Hematologic Response: Complete Response: 2(100)
  Best Hematologic Response: Major Hematologic Response: 2(100)
  Best Hematologic Response: No Evidence of Leukemia: 0
  Best Hematologic Response: No Response: 0
  Best Molecular Response: Complete Response: 0
  Best Molecular Response: Major Response: 1(50.0)
  Best Molecular Response: No Response: 1(50.0)
126 mg (N = 4) ESC
  Best Cytogenetic Response: Complete Response: 2(50.0)
  Best Cytogenetic Response: Major Cytogenetic Response: 2(50.0)
  Best Cytogenetic Response: Minimal Response: 1(25.0)
  Best Cytogenetic Response: Minor Response: 0
  Best Cytogenetic Response: No Response: 1(25.0)
  Best Cytogenetic Response: Partial Response: 0
  Best Hematologic Response: Complete Response: 4(100)
  Best Hematologic Response: Major Hematologic Response: 4(100)
  Best Hematologic Response: No Evidence of Leukemia: 0
  Best Hematologic Response: No Response: 0
  Best Molecular Response: Complete Response: 1(25.0)
  Best Molecular Response: Major Response: 1(25.0)
  Best Molecular Response: No Response: 3(75.0)
174 mg (N = 7) ESC
  Best Cytogenetic Response: Complete Response: 3(42.9)
  Best Cytogenetic Response: Major Cytogenetic Response: 3(42.9)
  Best Cytogenetic Response: Minimal Response: 2(28.6)
  Best Cytogenetic Response: Minor Response: 1(14.3)
  Best Cytogenetic Response: No Response: 0
  Best Cytogenetic Response: Partial Response: 0
  Best Hematologic Response: Complete Response: 4(57.1)
  Best Hematologic Response: Major Hematologic Response: 4(57.1)
  Best Hematologic Response: No Evidence of Leukemia: 0
  Best Hematologic Response: No Response: 2(28.6)
  Best Molecular Response: Complete Response: 1(14.3)
  Best Molecular Response: Major Response: 3(42.9)
  Best Molecular Response: No Response: 3(42.9)
174 mg (N = 10) EXP
  Best Cytogenetic Response: Complete Response: 6(60.0)
  Best Cytogenetic Response: Major Cytogenetic Response: 7(70.0)
  Best Cytogenetic Response: Minimal Response: 3(30.0)
  Best Cytogenetic Response: Minor Response: 0
  Best Cytogenetic Response: No Response: 0
  Best Cytogenetic Response: Partial Response: 1 (10.0)
  Best Hematologic Response: Complete Response: 10(100)
  Best Hematologic Response: Major Hematologic Response: 10(100)
  Best Hematologic Response: No Evidence of Leukemia: 0
  Best Hematologic Response: No Response: 0
  Best Molecular Response: Complete Response: 1(10.0)
  Best Molecular Response: Major Response: 1(10.0)
  Best Molecular Response: No Response: 9(90.0)
204 mg (N = 6) ESC
  Best Cytogenetic Response: Complete Response: 4(66.7)
  Best Cytogenetic Response: Major Cytogenetic Response: 6(100)
  Best Cytogenetic Response: Minimal Response: 0
  Best Cytogenetic Response: Minor Response: 0
  Best Cytogenetic Response: No Response: 0
  Best Cytogenetic Response: Partial Response: 2(33.3)
  Best Hematologic Response: Complete Response: 6(100)
  Best Hematologic Response: Major Hematologic Response: 6(100)
  Best Hematologic Response: No Evidence of Leukemia: 0
